{"source": "the kinase profiling compilation of Christmann-Franck et al. (2016)", "assay_in_all_cases": "radiometric filter-binding kinase assay, Kinase HotSpot", "conditions_in_all_cases": "compound 0.5 µM; ATP 10 µM", "key": {"DSTYK (human)": {"molecular_target": "DSTYK (human) (UniProt Q6XUX3)"}, "MAP4K5 (human)": {"molecular_target": "MAP4K5 (human) (UniProt Q9Y4K4)"}, "DAPK2 (human)": {"molecular_target": "DAPK2 (human) (UniProt Q9UIK4)", "sequence (Q9UIK4 whole entry, looked up)": "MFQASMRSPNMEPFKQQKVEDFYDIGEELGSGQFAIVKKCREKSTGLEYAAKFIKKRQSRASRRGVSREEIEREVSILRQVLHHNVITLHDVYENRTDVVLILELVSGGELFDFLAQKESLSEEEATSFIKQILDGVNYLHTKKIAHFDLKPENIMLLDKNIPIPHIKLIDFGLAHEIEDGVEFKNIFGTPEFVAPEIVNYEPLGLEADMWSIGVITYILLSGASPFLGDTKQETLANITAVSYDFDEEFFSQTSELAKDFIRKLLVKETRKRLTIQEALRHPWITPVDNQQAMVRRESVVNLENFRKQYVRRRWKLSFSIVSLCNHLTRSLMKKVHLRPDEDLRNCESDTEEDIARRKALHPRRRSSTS"}, "ULK1 (human)": {"molecular_target": "ULK1 (human) (UniProt O75385)"}, "DYRK4 (human)": {"molecular_target": "DYRK4 (human) (UniProt Q9NR20)", "sequence (Q9NR20 whole entry, looked up)": "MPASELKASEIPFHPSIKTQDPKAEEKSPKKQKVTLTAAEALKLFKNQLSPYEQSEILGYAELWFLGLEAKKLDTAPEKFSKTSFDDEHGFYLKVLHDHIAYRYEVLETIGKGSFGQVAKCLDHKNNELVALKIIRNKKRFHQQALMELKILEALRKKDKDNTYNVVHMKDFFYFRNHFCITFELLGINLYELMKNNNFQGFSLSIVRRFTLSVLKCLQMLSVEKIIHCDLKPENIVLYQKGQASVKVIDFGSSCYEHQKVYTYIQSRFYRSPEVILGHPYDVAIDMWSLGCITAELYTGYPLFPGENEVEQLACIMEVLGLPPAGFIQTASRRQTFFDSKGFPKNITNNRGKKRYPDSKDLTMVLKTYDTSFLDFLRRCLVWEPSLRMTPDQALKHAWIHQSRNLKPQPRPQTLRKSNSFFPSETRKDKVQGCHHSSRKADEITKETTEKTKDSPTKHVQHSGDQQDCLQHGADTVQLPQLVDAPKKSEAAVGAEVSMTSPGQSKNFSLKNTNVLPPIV"}, "DAPK3 (human)": {"molecular_target": "DAPK3 (human) (UniProt O43293)"}, "CDK1 CCNB1 (human)": {"molecular_target": "CDK1 CCNB1 (human) (UniProt P06493+P14635)"}, "PAK2 (human)": {"molecular_target": "PAK2 (human) (UniProt Q13177)", "sequence (Q13177 whole entry, looked up)": "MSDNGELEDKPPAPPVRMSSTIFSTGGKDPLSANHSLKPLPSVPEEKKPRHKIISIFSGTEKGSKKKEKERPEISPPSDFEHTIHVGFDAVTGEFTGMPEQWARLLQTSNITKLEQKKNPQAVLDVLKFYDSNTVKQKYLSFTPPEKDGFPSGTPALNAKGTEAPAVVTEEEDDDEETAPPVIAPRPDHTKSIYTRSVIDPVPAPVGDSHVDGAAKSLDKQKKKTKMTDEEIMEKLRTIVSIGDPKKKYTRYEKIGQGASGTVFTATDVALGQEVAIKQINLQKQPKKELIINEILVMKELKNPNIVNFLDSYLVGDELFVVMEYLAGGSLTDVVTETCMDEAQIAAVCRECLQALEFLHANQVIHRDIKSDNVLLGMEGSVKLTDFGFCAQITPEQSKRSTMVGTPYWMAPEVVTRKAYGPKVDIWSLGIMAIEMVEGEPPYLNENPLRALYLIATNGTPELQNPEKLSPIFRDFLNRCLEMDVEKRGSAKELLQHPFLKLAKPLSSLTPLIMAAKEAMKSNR"}, "FLT1 (human)": {"molecular_target": "FLT1 (human) (UniProt P17948)"}, "MARK3 (human)": {"molecular_target": "MARK3 (human) (UniProt P27448)"}, "PRKCD (human)": {"molecular_target": "PRKCD (human) (UniProt Q05655)"}, "PRKG2 (human)": {"molecular_target": "PRKG2 (human) (UniProt Q13237)"}, "MAPK9 (human)": {"molecular_target": "MAPK9 (human) (UniProt P45984)"}, "GRK5 (human)": {"molecular_target": "GRK5 (human) (UniProt P34947)"}, "EPHA2 (human)": {"molecular_target": "EPHA2 (human) (UniProt P29317)", "sequence (P29317 whole entry, looked up)": "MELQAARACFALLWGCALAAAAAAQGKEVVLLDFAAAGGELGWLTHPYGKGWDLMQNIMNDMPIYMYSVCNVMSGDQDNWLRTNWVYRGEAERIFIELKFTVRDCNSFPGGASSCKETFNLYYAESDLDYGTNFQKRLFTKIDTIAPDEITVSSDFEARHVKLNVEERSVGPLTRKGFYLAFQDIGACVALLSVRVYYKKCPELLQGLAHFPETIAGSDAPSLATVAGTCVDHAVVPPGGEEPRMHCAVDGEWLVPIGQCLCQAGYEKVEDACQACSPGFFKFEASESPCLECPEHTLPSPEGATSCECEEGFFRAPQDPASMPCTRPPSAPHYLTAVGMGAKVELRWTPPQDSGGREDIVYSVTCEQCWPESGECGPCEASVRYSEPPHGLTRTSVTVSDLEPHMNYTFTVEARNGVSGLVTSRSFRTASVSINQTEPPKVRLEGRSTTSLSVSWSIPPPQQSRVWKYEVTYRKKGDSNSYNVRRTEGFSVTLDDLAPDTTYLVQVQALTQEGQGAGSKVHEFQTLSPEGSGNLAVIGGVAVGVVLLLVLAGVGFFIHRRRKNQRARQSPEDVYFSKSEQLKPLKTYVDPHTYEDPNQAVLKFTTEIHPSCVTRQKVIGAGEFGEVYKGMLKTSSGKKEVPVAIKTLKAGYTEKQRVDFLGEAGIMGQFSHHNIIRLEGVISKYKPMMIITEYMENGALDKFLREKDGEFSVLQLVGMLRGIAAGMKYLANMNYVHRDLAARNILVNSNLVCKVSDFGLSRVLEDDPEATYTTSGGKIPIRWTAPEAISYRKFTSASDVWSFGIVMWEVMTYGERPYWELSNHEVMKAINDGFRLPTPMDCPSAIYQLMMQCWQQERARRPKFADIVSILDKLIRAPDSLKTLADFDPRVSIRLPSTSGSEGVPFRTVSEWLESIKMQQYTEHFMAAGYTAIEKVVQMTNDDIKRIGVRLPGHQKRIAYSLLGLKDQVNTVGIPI"}, "EPHB1 (human)": {"molecular_target": "EPHB1 (human) (UniProt P54762)"}, "JAK3 JH1 JH2 (human)": {"molecular_target": "JAK3 JH1 JH2 (human) (UniProt P52333)"}, "FLT3 (human)": {"molecular_target": "FLT3 (human) (UniProt P36888)", "sequence (P36888 whole entry, looked up)": "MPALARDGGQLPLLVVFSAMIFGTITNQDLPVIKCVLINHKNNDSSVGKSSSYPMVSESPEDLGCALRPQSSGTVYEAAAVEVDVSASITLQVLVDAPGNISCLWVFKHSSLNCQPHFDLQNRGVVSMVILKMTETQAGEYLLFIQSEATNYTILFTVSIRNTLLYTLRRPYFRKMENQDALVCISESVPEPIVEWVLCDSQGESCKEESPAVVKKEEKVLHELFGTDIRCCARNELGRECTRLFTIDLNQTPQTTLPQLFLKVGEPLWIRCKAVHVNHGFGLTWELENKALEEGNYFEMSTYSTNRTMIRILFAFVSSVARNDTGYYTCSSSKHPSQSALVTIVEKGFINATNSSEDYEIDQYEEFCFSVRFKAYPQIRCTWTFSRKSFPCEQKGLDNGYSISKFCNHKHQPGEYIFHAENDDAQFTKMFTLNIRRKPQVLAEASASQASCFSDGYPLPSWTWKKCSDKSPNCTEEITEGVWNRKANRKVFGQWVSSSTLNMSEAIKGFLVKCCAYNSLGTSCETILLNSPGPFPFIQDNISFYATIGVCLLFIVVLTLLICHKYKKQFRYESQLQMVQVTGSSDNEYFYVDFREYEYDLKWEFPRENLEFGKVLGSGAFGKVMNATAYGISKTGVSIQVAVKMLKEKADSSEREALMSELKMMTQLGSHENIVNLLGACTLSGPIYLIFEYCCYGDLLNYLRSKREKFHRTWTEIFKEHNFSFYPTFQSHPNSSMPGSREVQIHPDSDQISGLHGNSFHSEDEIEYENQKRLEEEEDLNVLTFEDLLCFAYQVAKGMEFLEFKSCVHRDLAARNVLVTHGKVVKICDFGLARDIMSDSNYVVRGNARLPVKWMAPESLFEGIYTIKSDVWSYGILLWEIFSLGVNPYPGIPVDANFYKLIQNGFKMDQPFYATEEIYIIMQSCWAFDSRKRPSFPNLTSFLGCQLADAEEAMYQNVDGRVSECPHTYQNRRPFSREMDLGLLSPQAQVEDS"}, "FGFR2 (human)": {"molecular_target": "FGFR2 (human) (UniProt P21802)"}, "CAMK2G (human)": {"molecular_target": "CAMK2G (human) (UniProt Q13555)"}, "CHEK2 (human)": {"molecular_target": "CHEK2 (human) (UniProt O96017)"}, "BMX (human)": {"molecular_target": "BMX (human) (UniProt P51813)"}, "MAP2K2 (human)": {"molecular_target": "MAP2K2 (human) (UniProt P36507)"}, "MATK (human)": {"molecular_target": "MATK (human) (UniProt P42679)"}, "MERTK (human)": {"molecular_target": "MERTK (human) (UniProt Q12866)"}, "ACVR1 (human)": {"molecular_target": "ACVR1 (human) (UniProt Q04771)"}, "AURKA (human)": {"molecular_target": "AURKA (human) (UniProt O14965)"}, "STK33 (human)": {"molecular_target": "STK33 (human) (UniProt Q9BYT3)"}, "LCK (human)": {"molecular_target": "LCK (human) (UniProt P06239)"}, "PRKCG (human)": {"molecular_target": "PRKCG (human) (UniProt P05129)"}, "BRSK2 (human)": {"molecular_target": "BRSK2 (human) (UniProt Q8IWQ3)"}, "ROCK2 (human)": {"molecular_target": "ROCK2 (human) (UniProt O75116)", "sequence (O75116 whole entry, looked up)": "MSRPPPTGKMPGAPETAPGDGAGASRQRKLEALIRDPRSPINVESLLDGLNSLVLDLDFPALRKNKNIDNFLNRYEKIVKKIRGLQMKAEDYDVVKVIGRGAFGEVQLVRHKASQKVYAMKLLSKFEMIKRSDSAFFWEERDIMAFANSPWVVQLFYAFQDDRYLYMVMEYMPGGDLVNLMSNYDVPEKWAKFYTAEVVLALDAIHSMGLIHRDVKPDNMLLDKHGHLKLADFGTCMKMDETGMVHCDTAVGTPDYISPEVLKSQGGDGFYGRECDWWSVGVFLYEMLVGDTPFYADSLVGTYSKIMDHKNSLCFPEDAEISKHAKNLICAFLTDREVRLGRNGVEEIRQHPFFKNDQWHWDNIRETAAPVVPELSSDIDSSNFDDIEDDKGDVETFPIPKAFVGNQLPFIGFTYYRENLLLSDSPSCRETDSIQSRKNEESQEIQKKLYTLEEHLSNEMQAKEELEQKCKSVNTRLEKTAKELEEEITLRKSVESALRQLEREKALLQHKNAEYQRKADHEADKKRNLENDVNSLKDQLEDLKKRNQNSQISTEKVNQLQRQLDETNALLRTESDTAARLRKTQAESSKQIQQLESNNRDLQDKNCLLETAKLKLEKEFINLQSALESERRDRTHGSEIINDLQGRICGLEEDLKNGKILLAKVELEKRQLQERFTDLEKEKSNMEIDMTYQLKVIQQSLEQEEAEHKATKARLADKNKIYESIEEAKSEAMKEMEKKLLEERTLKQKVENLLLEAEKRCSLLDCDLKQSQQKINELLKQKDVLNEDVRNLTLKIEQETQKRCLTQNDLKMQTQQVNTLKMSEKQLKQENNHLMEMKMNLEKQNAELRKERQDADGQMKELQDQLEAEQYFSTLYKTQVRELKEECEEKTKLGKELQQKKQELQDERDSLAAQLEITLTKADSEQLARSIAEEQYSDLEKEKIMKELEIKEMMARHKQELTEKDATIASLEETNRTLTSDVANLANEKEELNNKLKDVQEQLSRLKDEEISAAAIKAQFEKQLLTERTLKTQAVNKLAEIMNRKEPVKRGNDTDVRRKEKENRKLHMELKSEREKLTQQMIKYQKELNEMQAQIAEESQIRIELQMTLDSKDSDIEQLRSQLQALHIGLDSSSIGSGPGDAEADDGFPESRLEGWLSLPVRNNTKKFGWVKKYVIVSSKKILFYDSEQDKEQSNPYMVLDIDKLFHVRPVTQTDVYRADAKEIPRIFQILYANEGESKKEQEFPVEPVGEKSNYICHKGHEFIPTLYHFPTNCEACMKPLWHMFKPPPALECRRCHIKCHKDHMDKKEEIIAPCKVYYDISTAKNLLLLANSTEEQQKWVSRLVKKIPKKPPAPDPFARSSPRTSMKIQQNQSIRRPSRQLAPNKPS"}, "BLK (human)": {"molecular_target": "BLK (human) (UniProt P51451)"}, "ULK2 (human)": {"molecular_target": "ULK2 (human) (UniProt Q8IYT8)"}, "NLK (human)": {"molecular_target": "NLK (human) (UniProt Q9UBE8)"}, "NTRK2 (human)": {"molecular_target": "NTRK2 (human) (UniProt Q16620)"}, "CLK4 (human)": {"molecular_target": "CLK4 (human) (UniProt Q9HAZ1)"}, "CAMK4 (human)": {"molecular_target": "CAMK4 (human) (UniProt Q16566)"}, "PAK3 (human)": {"molecular_target": "PAK3 (human) (UniProt O75914)"}, "PLK2 (human)": {"molecular_target": "PLK2 (human) (UniProt Q9NYY3)"}, "TEC (human)": {"molecular_target": "TEC (human) (UniProt P42680)"}, "EPHA3 (human)": {"molecular_target": "EPHA3 (human) (UniProt P29320)"}}}
{"compound": "Cc1ccc(S(=O)(=O)/C=C/C#N)cc1", "values": [{"measurement": "residual activity", "setting": "DSTYK (human)", "result": 97.8, "unit": "%"}, {"measurement": "residual activity", "setting": "MAP4K5 (human)", "result": 97.8, "unit": "%"}, {"measurement": "residual activity", "setting": "DAPK2 (human)", "result": 100, "unit": "%"}, {"measurement": "residual activity", "setting": "ULK1 (human)", "result": 102, "unit": "%"}, {"measurement": "residual activity", "setting": "DYRK4 (human)", "result": 95.1, "unit": "%"}, {"measurement": "residual activity", "setting": "DAPK3 (human)", "result": 97.4, "unit": "%"}, {"measurement": "residual activity", "setting": "CDK1 CCNB1 (human)", "result": 92.3, "unit": "%"}, {"measurement": "residual activity", "setting": "PAK2 (human)", "result": 102, "unit": "%"}, {"measurement": "residual activity", "setting": "FLT1 (human)", "result": 92.8, "unit": "%"}, {"measurement": "residual activity", "setting": "MARK3 (human)", "result": 100, "unit": "%"}, {"measurement": "residual activity", "setting": "PRKCD (human)", "result": 95.6, "unit": "%"}, {"measurement": "residual activity", "setting": "PRKG2 (human)", "result": 102, "unit": "%"}, {"measurement": "residual activity", "setting": "MAPK9 (human)", "result": 102, "unit": "%"}, {"measurement": "residual activity", "setting": "GRK5 (human)", "result": 105, "unit": "%"}, {"measurement": "residual activity", "setting": "EPHA2 (human)", "result": 105, "unit": "%"}, {"measurement": "residual activity", "setting": "EPHB1 (human)", "result": 100, "unit": "%"}, {"measurement": "residual activity", "setting": "JAK3 JH1 JH2 (human)", "result": 101, "unit": "%"}, {"measurement": "residual activity", "setting": "FLT3 (human)", "result": 100, "unit": "%"}, {"measurement": "residual activity", "setting": "FGFR2 (human)", "result": 102, "unit": "%"}, {"measurement": "residual activity", "setting": "CAMK2G (human)", "result": 103, "unit": "%"}, {"measurement": "residual activity", "setting": "CHEK2 (human)", "result": 107, "unit": "%"}, {"measurement": "residual activity", "setting": "BMX (human)", "result": 105, "unit": "%"}, {"measurement": "residual activity", "setting": "MAP2K2 (human)", "result": 91, "unit": "%"}, {"measurement": "residual activity", "setting": "MATK (human)", "result": 101, "unit": "%"}, {"measurement": "residual activity", "setting": "MERTK (human)", "result": 96.4, "unit": "%"}, {"measurement": "residual activity", "setting": "ACVR1 (human)", "result": 101, "unit": "%"}, {"measurement": "residual activity", "setting": "AURKA (human)", "result": 111, "unit": "%"}, {"measurement": "residual activity", "setting": "STK33 (human)", "result": 87.1, "unit": "%"}, {"measurement": "residual activity", "setting": "LCK (human)", "result": 93.7, "unit": "%"}, {"measurement": "residual activity", "setting": "PRKCG (human)", "result": 92.9, "unit": "%"}, {"measurement": "residual activity", "setting": "BRSK2 (human)", "result": 99.4, "unit": "%"}, {"measurement": "residual activity", "setting": "ROCK2 (human)", "result": 99.1, "unit": "%"}, {"measurement": "residual activity", "setting": "BLK (human)", "result": 103, "unit": "%"}, {"measurement": "residual activity", "setting": "ULK2 (human)", "result": 110, "unit": "%"}, {"measurement": "residual activity", "setting": "NLK (human)", "result": 99.2, "unit": "%"}, {"measurement": "residual activity", "setting": "NTRK2 (human)", "result": 98.5, "unit": "%"}, {"measurement": "residual activity", "setting": "CLK4 (human)", "result": 89.7, "unit": "%"}, {"measurement": "residual activity", "setting": "CAMK4 (human)", "result": 96.4, "unit": "%"}, {"measurement": "residual activity", "setting": "PAK3 (human)", "result": 105, "unit": "%"}, {"measurement": "residual activity", "setting": "PLK2 (human)", "result": 103, "unit": "%"}, {"measurement": "residual activity", "setting": "TEC (human)", "result": 144, "unit": "%"}, {"measurement": "residual activity", "setting": "EPHA3 (human)", "result": 95, "unit": "%"}]}
{"compound": "CO[C@H]1CC2CC[C@@H](C)[C@@](O)(O2)C(=O)C(=O)N2CCCC[C@H]2C(=O)OC([C@H](C)C[C@@H]2CC[C@@H](O)[C@H](OC)C2)CC(=O)[C@H](C)/C=C(\\C)[C@@H](O)[C@@H](OC)C(=O)[C@H](C)C[C@H](C)/C=C/C=C/C=C/1C", "note": "(some centres undefined)", "values": [{"measurement": "residual activity", "setting": "DSTYK (human)", "result": 107, "unit": "%"}, {"measurement": "residual activity", "setting": "MAP4K5 (human)", "result": 110, "unit": "%"}, {"measurement": "residual activity", "setting": "DAPK2 (human)", "result": 112, "unit": "%"}, {"measurement": "residual activity", "setting": "ULK1 (human)", "result": 87.9, "unit": "%"}, {"measurement": "residual activity", "setting": "DYRK4 (human)", "result": 99.8, "unit": "%"}, {"measurement": "residual activity", "setting": "DAPK3 (human)", "result": 104, "unit": "%"}, {"measurement": "residual activity", "setting": "CDK1 CCNB1 (human)", "result": 103, "unit": "%"}, {"measurement": "residual activity", "setting": "PAK2 (human)", "result": 101, "unit": "%"}, {"measurement": "residual activity", "setting": "FLT1 (human)", "result": 97.7, "unit": "%"}, {"measurement": "residual activity", "setting": "MARK3 (human)", "result": 99, "unit": "%"}, {"measurement": "residual activity", "setting": "PRKCD (human)", "result": 102, "unit": "%"}, {"measurement": "residual activity", "setting": "PRKG2 (human)", "result": 91.9, "unit": "%"}, {"measurement": "residual activity", "setting": "MAPK9 (human)", "result": 98.4, "unit": "%"}, {"measurement": "residual activity", "setting": "GRK5 (human)", "result": 98.7, "unit": "%"}, {"measurement": "residual activity", "setting": "EPHA2 (human)", "result": 107, "unit": "%"}, {"measurement": "residual activity", "setting": "EPHB1 (human)", "result": 110, "unit": "%"}, {"measurement": "residual activity", "setting": "JAK3 JH1 JH2 (human)", "result": 92.4, "unit": "%"}, {"measurement": "residual activity", "setting": "FLT3 (human)", "result": 95.6, "unit": "%"}, {"measurement": "residual activity", "setting": "FGFR2 (human)", "result": 110, "unit": "%"}, {"measurement": "residual activity", "setting": "CAMK2G (human)", "result": 101, "unit": "%"}, {"measurement": "residual activity", "setting": "CHEK2 (human)", "result": 99, "unit": "%"}, {"measurement": "residual activity", "setting": "BMX (human)", "result": 96.6, "unit": "%"}, {"measurement": "residual activity", "setting": "MAP2K2 (human)", "result": 103, "unit": "%"}, {"measurement": "residual activity", "setting": "MATK (human)", "result": 92, "unit": "%"}, {"measurement": "residual activity", "setting": "MERTK (human)", "result": 90.9, "unit": "%"}, {"measurement": "residual activity", "setting": "ACVR1 (human)", "result": 94.6, "unit": "%"}, {"measurement": "residual activity", "setting": "AURKA (human)", "result": 81.5, "unit": "%"}, {"measurement": "residual activity", "setting": "STK33 (human)", "result": 105, "unit": "%"}, {"measurement": "residual activity", "setting": "LCK (human)", "result": 99.4, "unit": "%"}, {"measurement": "residual activity", "setting": "PRKCG (human)", "result": 106, "unit": "%"}, {"measurement": "residual activity", "setting": "BRSK2 (human)", "result": 109, "unit": "%"}, {"measurement": "residual activity", "setting": "ROCK2 (human)", "result": 108, "unit": "%"}, {"measurement": "residual activity", "setting": "BLK (human)", "result": 94.8, "unit": "%"}, {"measurement": "residual activity", "setting": "ULK2 (human)", "result": 120, "unit": "%"}, {"measurement": "residual activity", "setting": "NLK (human)", "result": 97.3, "unit": "%"}, {"measurement": "residual activity", "setting": "NTRK2 (human)", "result": 106, "unit": "%"}, {"measurement": "residual activity", "setting": "CLK4 (human)", "result": 116, "unit": "%"}, {"measurement": "residual activity", "setting": "CAMK4 (human)", "result": 99.1, "unit": "%"}, {"measurement": "residual activity", "setting": "PAK3 (human)", "result": 102, "unit": "%"}, {"measurement": "residual activity", "setting": "PLK2 (human)", "result": 105, "unit": "%"}, {"measurement": "residual activity", "setting": "TEC (human)", "result": 138, "unit": "%"}, {"measurement": "residual activity", "setting": "EPHA3 (human)", "result": 109, "unit": "%"}]}
